The values that follow are results of earlier work, collected in patent US5370879A, “Formulations and their use in the treatment of neurological diseases” (Elan Corporation, plc, priority 1990, dated 1994).

Data set [1] relates to MS patients. The note with it: orally in multiple daily doses.
Data set [2] relates to MS patients.
Data set [3] has as its system potassium ion flow in nerve impulse transmission.
Data set [4] has as its system patients with Alzheimer's disease.
Where [5] appears, read: orally in multiple daily doses over 2-5 days.

Molecules are shown by their SMILES.

As to `Nc1ccncc1N` [3,4-DAP, 3,4-Di-aminopyridine], in the data set on MS patients [1], the specific neurological deficits entry is reported as “improve specific neurological deficits” and the “visual evoked response latencies” value is “improve”.
`Nc1ccncc1` [Example 4-AP, 4-Aminopyridine]: in the data set with MS patients [2], the “conduction of nerve impulses” value is “improve the conduction of nerve impulses” and the “symptoms in MS patients” value is “alleviating symptoms in MS patients”. For the same compound, in the data set on MS patients [2] (setting [5]), the “improvements noted in clinical trials” value is “mild to marked improvements” and the side effects result is listed as “minimal side effects”. In data set [3], the “conduction in blocked demyelinated nerves” value is “effective in restoring conduction in blocked demyelinated nerves” and the “potassium ion flow in nerve impulse transmission” value was “slow the potassium ion flow”. Further, in data set [4], the mental functions entry was “improve the mental functions”.
